Source: ChEMBL document CHEMBL4680286, “Design, synthesis and antibacterial evaluation of novel oxazolidinone derivatives nitrogen-containing fused heterocyclic moiety” (2021)

Legend:
Format in all cases: functional
Staphylococcus aureus [1] = assay: Antibacterial activity against Staphylococcus aureus ATCC 29213
Staphylococcus aureus [2] = assay: Antibacterial activity against methicillin-resistant Staphylococcus aureus
Staphylococcus aureus [3] = assay: Antibacterial activity against methicillin-sensitive Staphylococcus aureus
Enterococcus faecalis [4] = assay: Antibacterial activity against linezolid-resistant Enterococcus faecalis
Enterococcus faecium [5] = assay: Antibacterial activity against vancomycin-resistant Enterococcus faecium
Staphylococcus aureus [6] = assay: Antibacterial activity against hospital acquired methicillin-resistant Staphylococcus aureus clinical isolates
Staphylococcus aureus [7] = assay: Antibacterial activity against hospital acquired methicillin-sensitive Staphylococcus aureus clinical isolates
Enterococcus faecium [8] = assay: Antibacterial activity against hospital acquired vancomycin-resistant Enterococcus faecium clinical isolates
Enterococcus faecalis [9] = assay: Antibacterial activity against hospital acquired linezolid-resistant Enterococcus faecalis clinical isolates
Streptococcus = assay: Antibacterial activity against Streptococcus
Staphylococcus = assay: Antibacterial activity against Staphylococcus
Enterococcus = assay: Antibacterial activity against Enterococcus

Measured: MIC

CC(=O)NC[C@H]1CN(c2ccc(-c3ccc(-c4cc5n(n4)CCNC5)cc3)c(F)c2)C(=O)O1
0.5 µg/mL: Enterococcus faecium [5]
2 µg/mL: Staphylococcus aureus [1] | Staphylococcus aureus [2] | Staphylococcus aureus [3] | Enterococcus faecalis [4]

CC(=O)NC[C@H]1CN(c2ccc(-c3ccc(-c4nc5n(n4)CCN(C)C5)cc3)c(F)c2)C(=O)O1
2 µg/mL: Enterococcus faecalis [4]
1 µg/mL: Staphylococcus aureus [1] | Staphylococcus aureus [2] | Staphylococcus aureus [3] | Enterococcus faecium [5]

CC(=O)NC[C@H]1CN(c2ccc(-c3ccc(-c4nc5cnccn5n4)cc3)c(F)c2)C(=O)O1
not listed: Streptococcus | Staphylococcus | Enterococcus
0.5 µg/mL: all other assays above

CC(=O)NC[C@H]1CN(c2ccc(-c3ccc(-c4nnc5cnccn45)cc3)c(F)c2)C(=O)O1
1 µg/mL: Staphylococcus aureus [1] | Staphylococcus aureus [2] | Staphylococcus aureus [3] | Enterococcus faecalis [4] | Enterococcus faecium [5]

CC(=O)NC[C@H]1CN(c2ccc(-c3ccc(-c4nc5ccccn5n4)cc3)c(F)c2)C(=O)O1
0.5 µg/mL: Enterococcus faecium [5]
1 µg/mL: Staphylococcus aureus [2] | Enterococcus faecalis [4]
2 µg/mL: Staphylococcus aureus [1] | Staphylococcus aureus [3]

CC(=O)NC[C@H]1CN(c2ccc(-c3ccc(-c4nc5n(n4)CCNC5)cc3)c(F)c2)C(=O)O1
2 µg/mL: Staphylococcus aureus [1] | Staphylococcus aureus [2]
1 µg/mL: Staphylococcus aureus [3] | Enterococcus faecalis [4] | Enterococcus faecium [5]

CC(=O)NC[C@H]1CN(c2ccc(-c3ccc(-c4nnc5ccccn45)cc3)c(F)c2)C(=O)O1
2 µg/mL: Staphylococcus aureus [1] | Staphylococcus aureus [2] | Enterococcus faecium [5]
1 µg/mL: Staphylococcus aureus [3] | Enterococcus faecalis [4]

CC(=O)NC[C@H]1CN(c2ccc(-c3ccc(-c4cc5n(n4)CCN(C)C5)cc3)c(F)c2)C(=O)O1
1 µg/mL: Staphylococcus aureus [1] | Staphylococcus aureus [2] | Staphylococcus aureus [3] | Enterococcus faecalis [4]
0.5 µg/mL: Enterococcus faecium [5]

CC(=O)NC[C@H]1CN(c2ccc(N3CCOCC3)c(F)c2)C(=O)O1 [LINEZOLID]
2 µg/mL: Enterococcus faecium [5]
> 16 µg/mL: Enterococcus faecalis [4] | Enterococcus faecalis [9]
not listed: Streptococcus | Staphylococcus | Enterococcus
1 µg/mL: all other assays above

CC(=O)NC[C@H]1CN(c2ccc(-c3ccc(CNCc4cnn[nH]4)cc3)c(F)c2)C(=O)O1 [RADEZOLID]
0.125 µg/mL: Streptococcus | Staphylococcus | Enterococcus
0.5 µg/mL: Staphylococcus aureus [1] | Staphylococcus aureus [2] | Staphylococcus aureus [3] | Enterococcus faecalis [4] | Enterococcus faecium [5]
